In paper PMC12820809 (Biomacromolecules, 2025):
Several values for one entry are separate records, joined by “and”; a condition that tells them apart may be missing. Equal entries are not always repeated.

Key:
[1] = tested on: bone marrow cells from wildtype C57BL/6 mice (M-MDSCs, dendritic cells); assay type: cell-based; conditions: 72 h, KR158 glioma conditioned media
THP-1STAT3-Luc cells = conditions: 72 h, concentration beyond 1.23 μg/mL
[2] = in water at a concentration equivalent to 10 mg/mL of LLL12
[3] = cited from earlier work
STAT3 = assay: pSTAT3 inhibition IC50, STAT3 luciferase reporter assay; assay type: cell-based, human; conditions: THP-1STAT3-Luc cells, 72 h treatment, then IL-6 stimulation 5 h, luminescence

SMILES: NS(=O)(=O)c1cccc2c1C(=O)c1cccc(O)c1C2=O [LLL12]
- Ly6C+ M-MDSC population compared to vehicle control ([1]; 0.4 μg/mL and 0.04 μg/mL): statistically significant reduction
- CD86+ cells (APC activation) ([1]; 0.004-0.4 μg/mL): dose-dependent increase
- CD11c expression (CD11c+ cells) compared to vehicle ([1]; highest concentration (0.4 μM)): statistically significant increase
- Cell death (THP-1STAT3-Luc cells): ~100%
- Water solubility (visual) [2]: poorly soluble
- LogP [3]: 2.596
- IC50 of STAT3 inhibition (STAT3): 0.31 ± 0.05 µg/mL and 0.307 µg/mL
